According to patent publication US20190142810A1, “MITOCHONDRIAL INHIBITORS FOR THE TREATMENT OF PROLIFERATION DISORDERS” (Basilea Pharmaceutica International AG, priority 2016, published 2019):

Key:
Assay type in all cases: cell-based
HeLa galactose cells = test: Cell growth and proliferation assay of HeLa galactose cells (crystal violet); conditions: Homo sapiens, HeLa, 72 h, 72 hours incubation, crystal violet staining, absorbance at 590 nm
Procedure, shortened: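 HeLa cells adapted stepwise over three weeks to glucose-free galactose medium plus 10 mM galactose, seeded at 2000 cells/well and treated 72 h with compounds (0.001% DMSO) at 37° C. Growth read by crystal violet staining, dye solubilized and absorbance at 590 nm; IC50 from concentration-response curves.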

[1] = tested on: Oxygen consumption (mitochondrial function); test: Oxygen consumption assay (MitoXpress probe); conditions: 5 h, MitoXpress probe signal, kinetic analysis at 37° C. for 5 hours, compared to untreated cells
Procedure, shortened: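 Cells seeded at 50′000/well, after 24 h given fresh media with inhibitor at a range of concentrations, then MitoXpress probe under mineral oil. Kinetic TRF read (380 nm excitation, 650 or 665 nm emission) at 37° C. for 5 hours. IC50 = concentration inhibiting 50% of probe signal versus untreated cells.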

[2] = tested on: HeLa glucose versus HeLa galactose cells; test: Cell growth assays (crystal violet) in HeLa galactose and HeLa glucose cells; conditions: FIG. 1, crystal violet cell growth assay
Description: The cervical tumor cell line HeLa (ATCC, CCL-2) was cultivated in DMEM medium (Invitrogen cat. no. 11971, 4.5 g/L high glucose) containing 10% fetal calf serum (Sigma cat. no. F9665) and 1% Penicillin/Streptomycin (Sigma cat. no. P0781) at 37° C. in 5% CO2. HeLa galactose cells (i.e. HeLa cells that grow in high concentrations of galactose) were generated from HeLa glucose cells (i.e. HeLa cells that grow in high concentrations of glucose) by gradually changing the amount of glucose in the media to zero glucose in the presence of galactose as a sugar source (50% galactose/50% glucose media for one week, then 75% galactose/25% glucose media for one week, to 100% galactose media in the third week). Galactose media (Invitrogen cat. no. 11966) was supplemented with 10 mM galactose (Sigma cat. no. G5388).
Cell Growth and Proliferation Assay of HeLa Galactose and Glucose Cells
HeLa galactose cells and HeLa glucose cells were seeded in 96 well plates (TPP, cat. no 92696) at 2000 and 1500 cells/well, respectively, in 100 μL of complete medium. […] Absorbance at 590 nm was measured using a SpectraMax® 250 plate reader (Molecular Devices). Antiproliferative/growth inhibition IC50s were calculated from concentration-response curves using GraphPad Prism software. […]

IC50 (HeLa galactose cells) [nM]	Compound	IC50 [1] [nM]	differential sensitivity in HeLa glucose versus HeLa galactose cell growth [2]
23	Cc1nsc(NC(=O)N2CCC(=Cc3c(F)cc(C(F)(F)F)cc3F)CC2)n1 [Example 41, 4-[[2,6-difluoro-4-(trifluoromethyl)phenyl]methylene]-N-(3-methyl-1,2,4-thiadiazol-5-yl)piperidine-1-carboxamide]	41	exhibit differential sensitivity
9	Cc1cc(NC(=O)N2CCC(=Cc3c(F)cc(N(C)C)cc3F)CC2)sn1 [Example 148, 4-[[4-(dimethylamino)-2,6-difluoro-phenyl]methylene]-N-(3-methylisothiazol-5-yl)piperidine-1-carboxamide]	16	
11	CCc1nsc(NC(=O)N2CCC(=Cc3c(F)cc(N(C)C)cc3F)CC2)n1 [Example 149, 4-[[4-(dimethylamino)-2,6-difluoro-phenyl]methylene]-N-(3-ethyl-1,2,4-thiadiazol-5-yl)piperidine-1-carboxamide]	13	
20	Cc1cc(NC(=O)N2CCC(Cc3c(F)cc(N(C)C)cc3F)CC2)sn1 [Example 151, 4-[[4-(dimethylamino)-2,6-difluoro-phenyl]methyl]-N-(3-methylisothiazol-5-yl)piperidine-1-carboxamide]	42	
19	CCc1nsc(NC(=O)N2CCC(Cc3c(F)cc(N(C)C)cc3F)CC2)n1 [Example 152, 4-[[4-(dimethylamino)-2,6-difluoro-phenyl]methyl]-N-(3-ethyl-1,2,4-thiadiazol-5-yl)piperidine-1-carboxamide]	39	
34	Cc1cc(NC(=O)N2CCC(Cc3c(F)cc(N(C)C)cc3F)CC2)ccn1 [Example 153]	119	
37	Cc1cc(NC(=O)N2CCC(=Cc3c(F)cc(N(C)C)cc3F)CC2)ccn1 [Example 154]	192	
51	Cc1nsc(NC(=O)N2CCC(=Cc3c(F)cc(N(C)C4CCOC4)cc3F)CC2)n1 (stereo not drawn) [Example 157]	109	
28	Cc1nsc(NC(=O)N2CCC(=Cc3c(F)cc(N(C)CCO)cc3F)CC2)n1 [Example 158, 4-[[2,6-difluoro-4-[2-hydroxyethyl(methyl)amino]phenyl]methylene]-N-(3-methyl-1,2,4-thiadiazol-5-yl)piperidine-1-carboxamide]	40	
21	COC1CN(Cc2ccc(Cl)cc2F)CCN(C(=O)Nc2nc(C)ns2)C1 (stereo not drawn) [Example 160, 4-[(4-chloro-2-fluoro-phenyl)methyl]-6-methoxy-N-(3-methyl-1,2,4-thiadiazol-5-yl)-1,4-diazepane-1-carboxamide]	65	
50	Cc1nsc(NC(=O)N2CCC(=Cc3c(F)cc(N(C)CC4CN(C)C4)cc3F)CC2)n1 [Example 161]	159	
19	Cc1nsc(NC(=O)N2CCC(=Cc3c(F)cc(N(C)CC#N)cc3F)CC2)n1 [Example 164, 4-[[4-[cyanomethyl(methyl)amino]-2,6-difluoro-phenyl]methylene]-N-(3-methyl-1,2,4-thiadiazol-5-yl)piperidine-1-carboxamide]	16	
54	Cc1cc(NC(=O)N2CCC(C(=O)c3c(F)cc(C(F)(F)F)cc3F)CC2)ccn1 [Example 173]	136	
54	COCc1cc(NC(=O)N2CCC(=Cc3ccc(Cl)cc3F)CC2)ccn1 [Example 176]	133	
11	CCc1cc(NC(=O)N2CCC(=Cc3c(F)cc(C#N)cc3F)CC2)ccn1 [Example 179, 4-[(4-cyano-2,6-difluoro-phenyl)methylene]-N-(2-ethyl-4-pyridyl)piperidine-1-carboxamide]	41	
13	N#Cc1cc(F)c(C=C2CCN(C(=O)Nc3ccnc(C4CC4)c3)CC2)c(F)c1 [Example 182, 4-[(4-cyano-2,6-difluoro-phenyl)methylene]-N-(2-cyclopropyl-4-pyridyl)piperidine-1-carboxamide]	108	
21	O=C(Nc1ccnc(C2CC2)c1)N1CCC(=Cc2ccc(Cl)cc2F)CC1 [Example 183, 4-[(4-chloro-2-fluoro-phenyl)methylene]-N-(2-cyclopropyl-4-pyridyl)piperidine-1-carboxamide]	42	
	Antimycin A		differential sensitivity in HeLa glucose versus HeLa galactose cell growth is exhibited
